Source: publication PMC5218480 (PLoS ONE, 2017)

Tested on: MV-4-11 cells
Assay: Gene expression microarray analysis (Affymetrix PrimeView) and GSEA
Type: cell-based, human
Set-up: RFU PODN (11730768_x_at) / Fold change /veh PODN (11730768_x_at) / RFU LINC00158 (11744669_a_at) / Fold change /veh LINC00158 (11744669_a_at) / RFU DUSP10 (11751237_a_at) / Fold change /veh DUSP10 (11751237_a_at) / RFU ID3 (11757404_x_at) / Fold change /veh ID3 (11757404_x_at) / RFU PLEKHG5 (11737974_s_at) / Fold change /veh PLEKHG5 (11737974_s_at) / RFU LRRC4B (11730491_at) / Fold change /veh LRRC4B (11730491_at) / RFU GIMAP4 (11747438_a_at) / Fold change /veh GIMAP4 (11747438_a_at) / RFU KRT8 (11758183_x_at) / Fold change /veh KRT8 (11758183_x_at) / RFU CNN1 (11734310_a_at) / Fold change /veh CNN1 (11734310_a_at) / RFU VPS37D (11726825_at) / Fold change /veh VPS37D (11726825_at) / RFU C10orf10 (11716522_x_at) / Fold change /veh C10orf10 (11716522_x_at) / RFU KIR2DL2 /// KIR2DL4 /// KIR2DL5A /// KIR2DL5B /// KIR2DS1 /// KIR2DS2 /// KIR2DS3 /// KIR2DS4 /// KIR3DL3 /// KIR3DL3 /// KIR3DS1 (11738374_at) / Fold change /veh KIR2DL2 /// KIR2DL4 /// KIR2DL5A /// KIR2DL5B /// KIR2DS1 /// KIR2DS2 /// KIR2DS3 /// KIR2DS4 /// KIR3DL3 /// KIR3DL3 /// KIR3DS1 (11738374_at) / RFU C1QL1 (11718748_at) / Fold change /veh C1QL1 (11718748_at) / RFU TMPRSS4 (11747572_a_at) / Fold change /veh TMPRSS4 (11747572_a_at) / RFU HAMP (11756126_x_at) / Fold change /veh HAMP (11756126_x_at) / RFU RNFT2 (11725882_a_at) / Fold change /veh RNFT2 (11725882_a_at) / RFU NR4A2 (11747474_a_at) / Fold change /veh NR4A2 (11747474_a_at) / RFU ABCC12 (11746883_a_at) / Fold change /veh ABCC12 (11746883_a_at) / RFU TMEM136 (11760407_x_at) / Fold change /veh TMEM136 (11760407_x_at) / RFU CLDN22 /// WWC2 (11732394_at) / Fold change /veh CLDN22 /// WWC2 (11732394_at) / RFU HLA-DPB1 (11760878_x_at) / Fold change /veh HLA-DPB1 (11760878_x_at) / RFU SPINT1 (11716480_a_at) / Fold change /veh SPINT1 (11716480_a_at) / RFU GAP43 (11754022_s_at) / Fold change /veh GAP43 (11754022_s_at) / RFU A4GNT (11735810_at) / Fold change /veh A4GNT (11735810_at) / RFU PRB3 (11715151_x_at) / Fold change /veh PRB3 (11715151_x_at) / RFU TUBB4B (11761932_at) / Fold change /veh TUBB4B (11761932_at) / RFU CAPN14 (11732068_a_at) / Fold change /veh CAPN14 (11732068_a_at) / RFU TMCC2 (11721928_a_at) / Fold change /veh TMCC2 (11721928_a_at) / RFU IRGQ (11745062_a_at) / Fold change /veh IRGQ (11745062_a_at) / RFU FAM174B (11720279_a_at) / Fold change /veh FAM174B (11720279_a_at) / RFU TMPRSS4 (11748680_a_at) / Fold change /veh TMPRSS4 (11748680_a_at) / RFU FAM212B (11763350_a_at) / Fold change /veh FAM212B (11763350_a_at) / RFU PLEKHG5 (11743358_a_at) / Fold change /veh PLEKHG5 (11743358_a_at) / RFU ZSCAN30 (11745921_a_at) / Fold change /veh ZSCAN30 (11745921_a_at) / RFU CMKLR1 (11741424_a_at) / Fold change /veh CMKLR1 (11741424_a_at) / RFU LOC101060620 /// MAPK8IP1 (11723275_at) / Fold change /veh LOC101060620 /// MAPK8IP1 (11723275_at) / RFU SPTSSB (11747773_x_at) / Fold change /veh SPTSSB (11747773_x_at) / RFU PRSS12 (11739890_at) / Fold change /veh PRSS12 (11739890_at) / RFU BIN1 (11741810_x_at) / Fold change /veh BIN1 (11741810_x_at) / RFU WNT11 (11732464_a_at) / Fold change /veh WNT11 (11732464_a_at) / RFU C10orf10 (11716521_a_at) / Fold change /veh C10orf10 (11716521_a_at) / RFU C5orf56 (11738089_at) / Fold change /veh C5orf56 (11738089_at) / RFU CYB561 (11721691_x_at) / Fold change /veh CYB561 (11721691_x_at) / RFU ANKRD19P (11752326_a_at) / Fold change /veh ANKRD19P (11752326_a_at) / RFU OR2T12 /// OR2T33 /// OR2T8 (11738714_s_at) / Fold change /veh OR2T12 /// OR2T33 /// OR2T8 (11738714_s_at) / RFU VCAN (11748164_a_at) / Fold change /veh VCAN (11748164_a_at) / RFU JSRP1 (11732532_at) / Fold change /veh JSRP1 (11732532_at) / RFU KRTAP10-11 (11738290_x_at) / Fold change /veh KRTAP10-11 (11738290_x_at) / RFU MYO3A (11730013_a_at) / Fold change /veh MYO3A (11730013_a_at) / RFU EBF3 (11725865_a_at) / Fold change /veh EBF3 (11725865_a_at) / RFU CAMK2N1 (11719241_x_at) / Fold change /veh CAMK2N1 (11719241_x_at) / RFU C5orf56 (11738088_a_at) / Fold change /veh C5orf56 (11738088_a_at) / RFU OLFML3 (11715873_a_at) / Fold change /veh OLFML3 (11715873_a_at) / RFU LOC100653217 /// NTM (11731650_a_at) / Fold change /veh LOC100653217 /// NTM (11731650_a_at) / RFU MAPK11 (11762145_a_at) / Fold change /veh MAPK11 (11762145_a_at) / RFU FIZ1 (11724087_x_at) / Fold change /veh FIZ1 (11724087_x_at) / RFU OASL (11726364_x_at) / Fold change /veh OASL (11726364_x_at) / RFU SOX15 (11748057_x_at) / Fold change /veh SOX15 (11748057_x_at) / RFU CD79A (11719716_a_at) / Fold change /veh CD79A (11719716_a_at) / RFU HIST1H1D (11736915_at) / Fold change /veh HIST1H1D (11736915_at) / RFU CASKIN2 (11723855_a_at) / Fold change /veh CASKIN2 (11723855_a_at) / RFU LOC730098 (11760151_x_at) / Fold change /veh LOC730098 (11760151_x_at) / RFU OR4N2 (11742367_at) / Fold change /veh OR4N2 (11742367_at) / RFU PRRT2 (11749266_a_at) / Fold change /veh PRRT2 (11749266_a_at) / RFU SNX32 (11753110_a_at) / Fold change /veh SNX32 (11753110_a_at) / RFU CDHR5 (11726645_a_at) / Fold change /veh CDHR5 (11726645_a_at) / RFU RCAN1 (11760418_a_at) / Fold change /veh RCAN1 (11760418_a_at) / RFU FAM167A (11723789_a_at) / Fold change /veh FAM167A (11723789_a_at) / RFU FAM26E (11764081_at) / Fold change /veh FAM26E (11764081_at) / RFU ISYNA1 (11749810_s_at) / Fold change /veh ISYNA1 (11749810_s_at) / RFU ACY1 (11761880_at) / Fold change /veh ACY1 (11761880_at) / RFU 11764098_at / Fold change /veh 11764098_at / RFU SAMD14 (11745864_x_at) / Fold change /veh SAMD14 (11745864_x_at) / RFU NPB (11741838_a_at) / Fold change /veh NPB (11741838_a_at) / RFU TMPRSS6 (11731388_a_at) / Fold change /veh TMPRSS6 (11731388_a_at) / RFU KRTAP10-2 (11738614_at) / Fold change /veh KRTAP10-2 (11738614_at) / RFU ARHGAP8 /// PRR5-ARHGAP8 (11727945_x_at) / Fold change /veh ARHGAP8 /// PRR5-ARHGAP8 (11727945_x_at) / RFU KRTAP5-7 /// NADSYN1 (11734609_at) / Fold change /veh KRTAP5-7 /// NADSYN1 (11734609_at) / RFU RASL12 (11751679_a_at) / Fold change /veh RASL12 (11751679_a_at) / RFU CDKN2B (11736163_a_at) / Fold change /veh CDKN2B (11736163_a_at) / RFU PRF1 (11729649_at) / Fold change /veh PRF1 (11729649_at) / RFU, ZNF638 /// ZNF638-IT1 / Fold change vs veh, ZNF638 /// ZNF638-IT1 / RFU, PANK3 / Fold change vs veh, PANK3 / RFU, SH3YL1 / Fold change vs veh, SH3YL1 / RFU, ZEB2 / Fold change vs veh, ZEB2 / RFU, NRIP1 / Fold change vs veh, NRIP1 / RFU, PTTG1IP / Fold change vs veh, PTTG1IP / RFU, CAPN2 / Fold change vs veh, CAPN2 / RFU, MED14 / Fold change vs veh, MED14 / RFU, SNORA58 / Fold change vs veh, SNORA58 / RFU, C1orf63 / Fold change vs veh, C1orf63 / RFU, LRRFIP1 / Fold change vs veh, LRRFIP1 / RFU, NDUFAF7 / Fold change vs veh, NDUFAF7 / RFU, SLC12A2 / Fold change vs veh, SLC12A2 / RFU, IBTK / Fold change vs veh, IBTK / RFU, ESF1 / Fold change vs veh, ESF1 / Fold change vs veh, TMEM50B / RFU, TAOK1 / Fold change vs veh, TAOK1 / RFU, ACBD3 / Fold change vs veh, ACBD3 / RFU, TMA16 / Fold change vs veh, TMA16 / RFU, RWDD3 / Fold change vs veh, RWDD3 / RFU, BCAT1 / Fold change vs veh, BCAT1 / RFU, EDEM3 / Fold change vs veh, EDEM3 / RFU, TMEM33 / Fold change vs veh, TMEM33 / RFU, WDR75 / Fold change vs veh, WDR75 / RFU, AHCTF1 / Fold change vs veh, AHCTF1 / RFU, TFRC / Fold change vs veh, TFRC / RFU, ZDHHC17 / Fold change vs veh, ZDHHC17 / RFU, NOM1 / Fold change vs veh, NOM1 / RFU, ARL8B / Fold change vs veh, ARL8B / RFU, ZBTB11 / Fold change vs veh, ZBTB11 / RFU, TAMM41 / Fold change vs veh, TAMM41 / RFU, KIAA1704 /// LOC100996395 / Fold change vs veh, KIAA1704 /// LOC100996395 / RFU, ING1 / Fold change vs veh, ING1 / RFU, TRMT61B / Fold change vs veh, TRMT61B / RFU, FUBP3 / Fold change vs veh, FUBP3 / RFU, TP53 / Fold change vs veh, TP53 / RFU, TNKS2 / Fold change vs veh, TNKS2 / RFU, ZFP14 / Fold change vs veh, ZFP14 / RFU, ACTR2 / Fold change vs veh, ACTR2 / RFU, PPP3R1 / Fold change vs veh, PPP3R1 / RFU, PIK3R1 / Fold change vs veh, PIK3R1 / RFU, HNRNPA1 / Fold change vs veh, HNRNPA1 / RFU, RNF170 / Fold change vs veh, RNF170 / RFU, ZNF28 / Fold change vs veh, ZNF28 / RFU, RNGTT / Fold change vs veh, RNGTT / RFU, OGT / Fold change vs veh, OGT / RFU, BRD1 / Fold change vs veh, BRD1 / RFU, MARS / Fold change vs veh, MARS / RFU, ZNF655 / Fold change vs veh, ZNF655 / RFU, FAHD1 / Fold change vs veh, FAHD1 / RFU, BDP1 / Fold change vs veh, BDP1 / RFU, LRRCC1 / Fold change vs veh, LRRCC1 / RFU, ARID1A / Fold change vs veh, ARID1A / RFU, ZNF146 / Fold change vs veh, ZNF146 / RFU, ZNF330 / Fold change vs veh, ZNF330 / RFU, GPN3 / Fold change vs veh, GPN3 / RFU, C9orf123 / Fold change vs veh, C9orf123 / RFU, N4BP2L2 / Fold change vs veh, N4BP2L2 / RFU, ARFIP1 / Fold change vs veh, ARFIP1 / RFU, FAM179B / Fold change vs veh, FAM179B / RFU, BCL10 / Fold change vs veh, BCL10 / RFU, UHRF1BP1L / Fold change vs veh, UHRF1BP1L / RFU, BET1 / Fold change vs veh, BET1 / RFU, CNOT2 / Fold change vs veh, CNOT2 / RFU, ZNF268 / Fold change vs veh, ZNF268 / Fold change vs veh, ZNF507 / RFU, DGCR2 / Fold change vs veh, DGCR2 / RFU, WDSUB1 / Fold change vs veh, WDSUB1 / Fold change vs veh, HSP90B1 /// MIR3652 / RFU, ADSS / Fold change vs veh, ADSS / RFU, GK / Fold change vs veh, GK / RFU, ZNF148 / Fold change vs veh, ZNF148 / RFU, TAF9 / Fold change vs veh, TAF9 / RFU, SLC1A5 / Fold change vs veh, SLC1A5 / RFU, SLMO2 / Fold change vs veh, SLMO2 / RFU, ABCC4 / Fold change vs veh, ABCC4 / RFU, LOC101060439 /// RAP1B / Fold change vs veh, LOC101060439 /// RAP1B / RFU, RFX7 / Fold change vs veh, RFX7 / RFU, GTPBP10 / Fold change vs veh, GTPBP10 / RFU, CNEP1R1 / Fold change vs veh, CNEP1R1 / RFU, BIVM-ERCC5 /// ERCC5 / Fold change vs veh, BIVM-ERCC5 /// ERCC5 / RFU, ILF3 / Fold change vs veh, ILF3 / RFU 11762660_at / Fold change /veh 11762660_at / RFU VCAN (11757783_s_at) / Fold change /veh VCAN (11757783_s_at) / RFU DDX43 (11728927_at) / Fold change /veh DDX43 (11728927_at) / RFU KRT8 (11758188_x_at) / Fold change /veh KRT8 (11758188_x_at) / RFU NKD1 (11759106_at) / Fold change /veh NKD1 (11759106_at) / RFU SRD5A1 (11742802_a_at) / Fold change /veh SRD5A1 (11742802_a_at) / RFU TPSAB1 /// TPSB2 (11721975_s_at) / Fold change /veh TPSAB1 /// TPSB2 (11721975_s_at) / RFU GSTM3 (11746129_a_at) / Fold change /veh GSTM3 (11746129_a_at) / RFU IL23R (11737362_x_at) / Fold change /veh IL23R (11737362_x_at) / RFU TMEM51 (11727254_a_at) / Fold change /veh TMEM51 (11727254_a_at) / RFU PIWIL2 (11732686_x_at) / Fold change /veh PIWIL2 (11732686_x_at) / RFU ORM1 (11744905_x_at) / Fold change /veh ORM1 (11744905_x_at) / RFU CCDC152 (11743942_at) / Fold change /veh CCDC152 (11743942_at) / RFU ECM1 (11717891_a_at) / Fold change /veh ECM1 (11717891_a_at) / RFU IL23R (11748794_a_at) / Fold change /veh IL23R (11748794_a_at) / RFU TNFAIP8L3 (11732012_x_at) / Fold change /veh TNFAIP8L3 (11732012_x_at) / RFU MBOAT4 (11741988_at) / Fold change /veh MBOAT4 (11741988_at) / RFU 11764193_at / Fold change /veh 11764193_at / RFU TMEM53 (11763286_at) / Fold change /veh TMEM53 (11763286_at) / RFU MAGEB2 (11727129_at) / Fold change /veh MAGEB2 (11727129_at) / RFU TMEM200A (11744735_a_at) / Fold change /veh TMEM200A (11744735_a_at) / RFU CCDC152 (11751479_a_at) / Fold change /veh CCDC152 (11751479_a_at) / RFU FAM211A (11726209_a_at) / Fold change /veh FAM211A (11726209_a_at) / RFU RGS16 (11746705_a_at) / Fold change /veh RGS16 (11746705_a_at) / RFU VCAN (11755009_s_at) / Fold change /veh VCAN (11755009_s_at) / RFU RHOB (11743442_s_at) / Fold change /veh RHOB (11743442_s_at) / RFU RGS16 (11720943_a_at) / Fold change /veh RGS16 (11720943_a_at) / RFU RGS16 (11720944_at) / Fold change /veh RGS16 (11720944_at) / RFU, VPS4B / Fold change vs veh, VPS4B / RFU, CREB1 / Fold change vs veh, CREB1 / RFU, DNAJC13 / Fold change vs veh, DNAJC13 / RFU, GNAQ / Fold change vs veh, GNAQ / RFU, CDK5R1 / Fold change vs veh, CDK5R1 / RFU, ZRANB3 / Fold change vs veh, ZRANB3 / RFU, CUL4A / Fold change vs veh, CUL4A / RFU, CCNY / Fold change vs veh, CCNY / RFU, UFL1 / Fold change vs veh, UFL1 / RFU, COG3 / Fold change vs veh, COG3 / RFU, DIAPH2 / Fold change vs veh, DIAPH2 / RFU, SKA2 / Fold change vs veh, SKA2 / RFU, AFF3 / Fold change vs veh, AFF3 / RFU, LMF1 / Fold change vs veh, LMF1 / RFU, IPO11 / Fold change vs veh, IPO11 / RFU, DFFB / Fold change vs veh, DFFB / RFU, FOXP1 / Fold change vs veh, FOXP1 / RFU, CARD8 / Fold change vs veh, CARD8 / RFU, STRN3 / Fold change vs veh, STRN3 / RFU, ADK / Fold change vs veh, ADK / RFU, RASSF2 / Fold change vs veh, RASSF2 / RFU, WIPF1 / Fold change vs veh, WIPF1 / RFU, LARP1B / Fold change vs veh, LARP1B / RFU, RASA1 / Fold change vs veh, RASA1 / RFU, RB1 / Fold change vs veh, RB1 / RFU, PPFIA1 / Fold change vs veh, PPFIA1 / RFU, MAT2A / Fold change vs veh, MAT2A / RFU, CCT5 / Fold change vs veh, CCT5 / RFU, WDR92 / Fold change vs veh, WDR92 / RFU, CUX1 / Fold change vs veh, CUX1 / RFU, TTC7A / Fold change vs veh, TTC7A / RFU, TMEM135 / Fold change vs veh, TMEM135 / RFU, DEPTOR / Fold change vs veh, DEPTOR / RFU, CPM / Fold change vs veh, CPM / RFU, DNAJB6 / Fold change vs veh, DNAJB6 / RFU, CACNA2D3 / Fold change vs veh, CACNA2D3 / RFU, DTX4 / Fold change vs veh, DTX4 / RFU, TFCP2 / Fold change vs veh, TFCP2 / RFU, GMCL1 /// GMCL1P1 / Fold change vs veh, GMCL1 /// GMCL1P1 / RFU, AEBP2 / Fold change vs veh, AEBP2 / RFU, SNHG1 /// SNORD22 /// SNORD25 /// SNORD26 /// SNORD27 /// SNORD28 /// SNORD29 /// SNORD31 / Fold change vs veh, SNHG1 /// SNORD22 /// SNORD25 /// SNORD26 /// SNORD27 /// SNORD28 /// SNORD29 /// SNORD31 / Fold change (Aza/veh), C12orf56 (ProbeSet 11735607_a_at) / Fold change (ACY-1035/veh), C12orf56 (ProbeSet 11735607_a_at) / Fold change (Aza/veh), FGFR1OP (ProbeSet 11751329_s_at) / Fold change (ACY-1035/veh), FGFR1OP (ProbeSet 11751329_s_at) / Fold change (Aza/veh), VPS36 (ProbeSet 11739960_a_at) / Fold change (ACY-1035/veh), VPS36 (ProbeSet 11739960_a_at) / RFU SYPL1 (11715823_x_at) / Fold change /veh SYPL1 (11715823_x_at) / RFU IGFBP7 (11715501_s_at) / Fold change /veh IGFBP7 (11715501_s_at) / RFU REEP3 (11722064_at) / Fold change /veh REEP3 (11722064_at) / RFU IGLL1 (11728026_x_at) / Fold change /veh IGLL1 (11728026_x_at): dose or concentration left out as unconfirmed
Settings: MV-4-11 cells, 48 hours

SMILES: Nc1ncn([C@@H]2O[C@H](CO)[C@@H](O)[C@H]2O)c(=O)n1 [azacitidine]
- RFU FAM167A (11723789_a_at): 38.83 RFU
